Test results reported in the NIST ThermoML archive (doi:10.1021/acs.jced.8b01256).
Numbers after ± are expanded uncertainties.

Experiments:
[1] = Crystal; DSC
[2] = Molar enthalpy of transition or fusion; conditions: Crystal; DSC

SMILES: Cc1[nH]nc2cc([N+](=O)[O-])ccc12 [3-methyl-6-nitroindazole]
- Triple point temperature [1]: 460.15 ± 1 K
- Molar enthalpy of transition or fusion [2]: 2.55 ± 0.0908 kcal/mol
